Values quoted from earlier work in patent publication US6872734B2, “Use of tiagabine for treatment of diabetic neuropathy and migraine” (Abbott Laboratories, priority 2000, dated 2005).

Test system: GABA uptake
Details: for inhibition of GABA uptake: according to J. Pharm. Exp. Therap., 228 (1984), 109

| Structure (SMILES) | inhibition of GABA uptake | GABA uptake inhibitory properties (acid and salts thereof, cf. U.S. Pat. No. 5,010,090) |
| --- | --- | --- |
| O=C(O)C1CCCN(CCC=C(c2ccccc2)c2ccccc2)C1 (stereo not shown) [SK&F 89976A, N-(4,4-diphenyl-3 butenyl)nipecotic acid] | active inhibitors of GABA uptake | – |
| O=C(O)C1CCCN(CCC=C(c2ccccc2)c2cccs2)C1 (stereo not shown) [SK&F 100604J, N-(4-phenyl-4-(2-thienyl)-3-butenyl)nipecotic acid] | active inhibitors of GABA uptake | – |
| O=C(O)C1=CCCN(CCC=C(c2ccccc2)c2ccccc2)C1 [SK&F 100330A, N-(4,4-diphenyl-3-butenyl)guvacine] | active inhibitors of GABA uptake | – |
| Cc1ccsc1C(=CCCN1CCC[C@@H](C(=O)O)C1)c1sccc1C [(R)-N-[4,4-Bis(3-methyl-2-thienyl)-3-butenyl]nipecotic acid] | – | effective GABA uptake inhibitory compounds |
